Patent US8293732B2, “Antibacterial quinoline derivatives” (Janssen Pharmaceutica N.V., priority 2006, dated 2012)
Values after ≈ are worked out from the molar mass of the structure shown.

Legend:
[1] = tested on: Staphylococcus aureus (ATCC29213); assay: In-vitro anti-bacterial microtitre plate assay, IC90 determination (STA 1 B29213); assay type: cell-based; details: 90% inhibitory concentration for bacterial growth, 37° C., resazurin fluorescence; for IC90: Staphylococcus aureus, ATCC29213, 24 h; for IC90 values STA 1 B29213: 24 hours
Experimental: (§1) The bacteria used in this study were grown overnight in flasks containing 100 ml Mueller-Hinton Broth (Becton Dickinson—cat. no. 275730) in sterile de-ionized water, with shaking, at 37° C. Stocks (0.5 ml/tube) were stored at −70° C. until use. Bacteria titrations were performed in microtiter plates to detect the TCID50, in which the TCID50 represents the dilution that gives rise to bacterial growth in 50% of inoculated cultures.
(§2) In general, an inoculum level of approximately 100 TCID50 was used for susceptibility testing.
(§3) Flat-bottom, sterile 96-well plastic microtiter plates were filled with 180 μl of sterile deionized water, supplemented with 0.25% BSA. Subsequently, stock solutions (7.8× final test concentration) of compounds were added in 45 μl volumes in column 2. Serial five-fold dilutions (45 μl in 180 μl) were made directly in the microtiter plates from column 2 to reach column 11. Untreated control samples with (column 1) and without (column 12) inoculum were included in each microtiter plate. Depending on the bacteria type, approximately 10 to 60 CFU per well of bacteria inoculum (100 TCID50), in a volume of 100 μl in 2.8× Mueller-Hinton broth medium, was added to the rows A to H, except column 12. The same volume of broth medium without inoculum was added to column 12 in row A to H. The cultures were incubated at 37° C. for 24 hours under a normal atmosphere (incubator with open air valve and continuous ventilation). At the end of incubation, one day after inoculation, the bacterial growth was quantitated fluorometrically. Therefore resazurin (0.6 mg/ml) was added in a volume of 20 μl to all wells 3 hours after inoculation, and the plates were re-incubated overnight. A change in colour from blue to pink indicated the growth of bacteria. The fluorescence was read in a computer-controlled fluorometer (Cytofluor Biosearch) at an excitation wavelength of 530 nm and an emission wavelength of 590 nm. The % growth inhibition achieved by the compounds was calculated according to standard methods.
(§4) STA 29213 means Staphylococcus aureus (ATCC29213); SPN 6305 means Streptococcus pneumoniae (ATCC6305); MSM 607 means M. Smegmatis (ATCC607); ATCC means […].

[2] = tested on: Streptococcus pneumoniae (ATCC6305); assay: In-vitro anti-bacterial microtitre plate assay, IC90 determination (SPN 1 6305); assay type: cell-based; details: 90% inhibitory concentration for bacterial growth, 37° C., resazurin fluorescence; for IC90 values SPN 1 6305: 24 hours; for IC90: Streptococcus pneumoniae, ATCC6305, 24 h
Experimental: as §1, §2, §3, §4

M. Smegmatis (ATCC607) = assay: In-vitro anti-bacterial activity against strain M. Smegmatis ATCC607; assay type: cell-based; details: 90% inhibitory concentration for bacterial growth, 37° C., Alamar Blue fluorescence; for IC90: Mycolicibacterium smegmatis, ATCC607, 48 h, read-out: IC90 values MSM 1 ATCC607; for IC90 values MSM 1 ATCC607: 48 hours
Experimental: Flat-bottom, sterile 96-well plastic microtiter plates were filled with 180 μl of sterile deionized water, supplemented with 0.25% BSA. Subsequently, stock solutions (7.8× final test concentration) of compounds were added in 45 μl volumes to a series of duplicate wells in column 2 so as to allow evaluation of their effects on bacterial growth. Serial five-fold dilutions (45 μl in 180 μl) were made directly in the microtiter plates from column 2 to 11 using a customised robot system (Zymark Corp., Hopkinton, Mass.). Pipette tips were changed after every 3 dilutions to minimize pipetting errors with high hydrophobic compounds. Untreated control samples with (column 1) and without (column 12) inoculum were included in each microtiter plate. Approximately 250 CFU per well of bacteria inoculum, in a volume of 100 μl in 2.8× Mueller-Hinton broth medium, was added to the rows A to H, except column 12. The same volume of broth medium without inoculum was added to column 12 in row A to H. The cultures were incubated at 37° C. for 48 hours in a humidified 5% CO2 atmosphere (incubator with open air valve and continuous ventilation). At the end of incubation, two days after inoculation, the bacterial growth was quantitated fluorometrically. Therefore Alamar Blue (10×) was added to all wells in a volume of 20 μl and plates were incubated for another 2 hours at […]
The fluorescence was read in a computer-controlled fluorometer (Cytofluor, Biosearch) at an excitation wavelength of 530 nm and an emission wavelength of 590 nm (gain 30).
as §4

Row | SMILES | IC90 [1] | IC90 values SPN 1 6305 [2] | IC90 (M. Smegmatis (ATCC607)) | melting point | IC90 values STA 1 B29213 [1] | IC90 values MSM 1 ATCC607 (M. Smegmatis (ATCC607)) | IC90 [2]
1 | COc1nc2ccc(Br)cc2cc1C(c1ccccc1)C(O)(CCCCN(C)C)COc1ccccc1 (single isomer, unassigned) [Compound 1] | 8.9 µg/mL (≈ 15.8 µM) | 8.9 µg/mL (≈ 15.8 µM) | 2.2 µg/mL (≈ 3.9 µM) | 148 °C | – | – | –
2 | COc1nc2ccc(Br)cc2cc1C(c1ccccc1)C(O)(CCCCN(C)C)COc1ccccc1 (single isomer, unassigned) [Compound 2] | – | 2.2 µg/mL (≈ 3.9 µM) | – | 151 °C | 4.5 µg/mL (≈ 7.99 µM) | 1.8 µg/mL (≈ 3.19 µM) | –
3 | COc1nc2ccc(Br)cc2cc1C(c1ccc(Cl)cc1)C(O)(CCCCN(C)C)COc1ccccc1 (single isomer, unassigned) [Compound 4] | – | 2.4 µg/mL (≈ 4.01 µM) | – | 118 °C | 1.9 µg/mL (≈ 3.18 µM) | 1.9 µg/mL (≈ 3.18 µM) | –
4 | COc1nc2ccc(Br)cc2cc1C(c1ccccc1)C(O)(CCCCN(C)C)COc1ccc(C)cc1 (single isomer, unassigned) [Compound 5] | – | – | 1.8 µg/mL (≈ 3.12 µM) | 146 °C | 4.1 µg/mL (≈ 7.1 µM) | – | 4.1 µg/mL (≈ 7.1 µM)
5 | COc1nc2ccc(Br)cc2cc1C(c1ccccc1)C(O)(CCCCN(C)C)COc1ccc(C)cc1 (single isomer, unassigned) [Compound 6] | – | 5.2 µg/mL (≈ 9 µM) | – | 130 °C | 9.2 µg/mL (≈ 15.9 µM) | 1.8 µg/mL (≈ 3.12 µM) | –
6 | COc1nc2ccccc2cc1C(c1ccc(-c2cnn(C)c2)cc1)C(O)(CCCCN(C)C)c1ccc2ccccc2c1 (single isomer, unassigned) [Compound 10] | 1.9 µg/mL (≈ 3.25 µM) | – | – | 190 °C | – | 0.4 µg/mL (≈ 0.684 µM) | 1.9 µg/mL (≈ 3.25 µM)
7 | COc1nc2ccccc2cc1C(c1ccc(-c2ccoc2)cc1)C(O)(CCCCN(C)C)c1ccc2ccccc2c1 (single isomer, unassigned) [Compound 13] | – | 2.0 µg/mL (≈ 3.5 µM) | – | 197 °C | 1.8 µg/mL (≈ 3.15 µM) | 1.3 µg/mL (≈ 2.28 µM) | –
8 | COc1nc2ccc(Br)cc2cc1C(c1ccccc1)C(O)(CCCCN1CCCCC1)COCc1ccccc1 (single isomer, unassigned) [Compound 25] | – | 2.0 µg/mL (≈ 3.24 µM) | – | – | 2.5 µg/mL (≈ 4.05 µM) | 2.0 µg/mL (≈ 3.24 µM) | –
9 | COc1nc2ccc(Br)cc2cc1C(c1ccccc1)C(O)(CCCCN1CCCCC1)COCc1ccccc1 (single isomer, unassigned) [Compound 26] | 2 µg/mL (≈ 3.24 µM) | – | 2 µg/mL (≈ 3.24 µM) | – | – | – | 2 µg/mL (≈ 3.24 µM)
10 | COc1nc2ccc(Br)cc2cc1C(c1ccccc1)C(O)(CCCCN1CCN(C)CC1)COCc1ccccc1 (single isomer, unassigned) [Compound 27] | – | 2.2 µg/mL (≈ 3.48 µM) | – | – | 4.5 µg/mL (≈ 7.11 µM) | 2.0 µg/mL (≈ 3.16 µM) | –
11 | COc1nc2ccc(Br)cc2cc1C(c1ccc2c(c1)OCO2)C(O)(CCN(C)C)c1ccccc1 (single isomer, unassigned) [Compound 29] | – | 0.4 µg/mL (≈ 0.728 µM) | – | – | 3.1 µg/mL (≈ 5.64 µM) | 1.7 µg/mL (≈ 3.09 µM) | –
12 | COc1nc2ccc(Br)cc2cc1C(c1ccccc1)C(O)(CCCCN(C)C)c1cccc(-c2ccccc2)c1 (single isomer, unassigned) [Compound 31] | 1.93 µg/mL (≈ 3.17 µM) | 0.86 µg/mL (≈ 1.41 µM) | 1.93 µg/mL (≈ 3.17 µM) | – | – | – | –
13 | COc1nc2ccc(Br)cc2cc1C(c1ccccc1)C(O)(CCCCN(C)C)c1cccc(-c2ccccc2)c1 (single isomer, unassigned) [Compound 32] | – | 1.93 µg/mL (≈ 3.17 µM) | – | – | 1.93 µg/mL (≈ 3.17 µM) | 0.97 µg/mL (≈ 1.59 µM) | –
14 | COc1nc2ccc(Br)cc2cc1C(c1ccccc1)C(O)(CCCCN(C)C)c1cccc(-c2ccc(Cl)cc2)c1 (single isomer, unassigned) [Compound 33] | – | 1.82 µg/mL (≈ 2.83 µM) | 2.04 µg/mL (≈ 3.17 µM) | – | 2.04 µg/mL (≈ 3.17 µM) | – | –
15 | COc1nc2ccc(Br)cc2cc1C(c1ccccc1)C(O)(CCCCN(C)C)c1cccc(-c2ccc(Cl)cc2)c1 (single isomer, unassigned) [Compound 34] | – | 0.72 µg/mL (≈ 1.12 µM) | – | – | 0.91 µg/mL (≈ 1.41 µM) | 1.29 µg/mL (≈ 2 µM) | –
16 | COc1ccc(-c2cccc(C(O)(CCCCN(C)C)C(c3ccccc3)c3cc4cc(Br)ccc4nc3OC)c2)cc1 (single isomer, unassigned) [Compound 38] | 2.02 µg/mL (≈ 3.16 µM) | – | – | – | – | 10.14 µg/mL (≈ 15.9 µM) | 2.02 µg/mL (≈ 3.16 µM)
17 | COc1ccc(-c2cccc(C(O)(CCCCN(C)C)C(c3ccccc3)c3cc4cc(Br)ccc4nc3OC)c2)cc1 (single isomer, unassigned) [Compound 39] | – | 2.02 µg/mL (≈ 3.16 µM) | – | – | 2.02 µg/mL (≈ 3.16 µM) | 2.02 µg/mL (≈ 3.16 µM) | –
18 | COc1nc2ccc(Br)cc2cc1C(c1ccccc1)C(O)(CCCCN(C)C)c1cccc(-c2ccc(C)cc2)c1 (single isomer, unassigned) [Compound 40] | 1.97 µg/mL (≈ 3.16 µM) | – | – | – | – | 7.85 µg/mL (≈ 12.6 µM) | 1.97 µg/mL (≈ 3.16 µM)
19 | COc1nc2ccc(Br)cc2cc1C(c1ccccc1)C(O)(CCCCN(C)C)c1cccc(/C=C/c2ccccc2)c1 (single isomer, unassigned) [Compound 41] | 2.01 µg/mL (≈ 3.16 µM) | 2.01 µg/mL (≈ 3.16 µM) | – | – | – | 0.40 µg/mL (≈ 0.629 µM) | –
20 | COc1nc2ccccc2cc1C(c1ccc(-c2ccncc2)cc1)C(O)(CCCCN(C)C)c1ccc2ccccc2c1 (single isomer, unassigned) [Compound 48] | – | – | – | 210 °C | 1.84 µg/mL (≈ 3.16 µM) | 1.04 µg/mL (≈ 1.79 µM) | –
21 | COc1nc2ccc(Br)cc2cc1C(c1ccoc1)C(O)(CCc1ccc(F)cc1)CCN(C)C (single isomer, unassigned) [Compound 53] | 8.58 µg/mL (≈ 15.8 µM) | – | 1.71 µg/mL (≈ 3.16 µM) | 122 °C | – | – | –
22 | COc1nc2ccc(Br)cc2cc1C(c1ccccc1)C(O)(CCCCN(C)C)c1cccc(/C=C/c2ccccc2)c1 (single isomer, unassigned) [Compound 55] | – | 0.898 µg/mL (≈ 1.41 µM) | – | – | 2.01 µg/mL (≈ 3.16 µM) | 1.792 µg/mL (≈ 2.82 µM) | –
